The test has as its target Tyrosine-protein phosphatase non-receptor type 7 (Homo sapiens) (UniProt P35236). The test can be described thus: inhibition of hematopoietic tyrosine phosphatase HePTP – biochemical, set 2, SAR follow-up (AID 449736). Conditions: recombinant HePTP phosphatase activity.

Chain of Tyrosine-protein phosphatase non-receptor type 7 (Homo sapiens) (P35236 whole entry, looked up): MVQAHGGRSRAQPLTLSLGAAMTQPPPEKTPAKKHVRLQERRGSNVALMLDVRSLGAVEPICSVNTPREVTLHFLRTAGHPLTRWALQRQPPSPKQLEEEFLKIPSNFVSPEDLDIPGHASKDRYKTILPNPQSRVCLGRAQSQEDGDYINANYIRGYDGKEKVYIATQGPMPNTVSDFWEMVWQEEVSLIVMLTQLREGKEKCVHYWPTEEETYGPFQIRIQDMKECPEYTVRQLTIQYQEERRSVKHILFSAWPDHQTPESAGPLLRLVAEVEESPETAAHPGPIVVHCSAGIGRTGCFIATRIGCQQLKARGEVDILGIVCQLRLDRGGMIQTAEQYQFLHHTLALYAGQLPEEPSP

A word on the IC50: it is the midpoint of a concentration-inhibition curve. As to `COc1cc(/C=C2\SC(=O)N(CC(=O)Nc3cccc(C)c3)C2=O)cc(Cl)c1OCC(=O)O`, the IC50 was 3.61 µM.
